The values that follow come from US20070254323A1, “Malachite green derivatives for immunoassay reagents to detect malachite green” (priority 2006, published 2007).

Data set [1] deals with anti-Malachite Green antibodies. The data set can be described thus: competitive ELISA: sensitivity and specificity of the produced anti-Malachite Green antibodies. The format is binding, rabbit. The settings on record: for level detectable by the antibodies: competitive inhibition ELISA; for Cross-reactivities / Sensitivity: competitive ELISA; for Cross-reactivities: Malachite Green = 100; for Sensitivity: produced anti-Malachite Green antibodies. The method, then: In accordance with this embodiment, the diluted antiserum is added to a Malachite Green Chromatic conjugate-coated solid substrate such as the wells of an assay plate, together with a range of concentrations of free Malachite Green Chromatic as a competitor. Following incubation and washing, bound antibody in the wells is determined. Percent inhibition may be calculated as (1−B/B0)×100 where B is the optical density (OD) of a well with a competitor and B0 is the mean OD of the wells without competitor (control). […] However, for even greater accuracy, the affinity may be alternatively measured at 50% inhibition (IC50). […] Detection of bound antibody may be accomplished by addition of enzyme-labeled anti-immunoglobulin antibodies followed by enzyme substrate. Horseradish peroxidase and its substrate TMB are preferred enzyme/substrate labels. However, it is understood that other enzyme/substrate labels or non-enzyme labels such as radiolabels or chromophores may also be used.
Two female New Zealand White Rabbits, 8 weeks old, were initially immunized by intraperitoneal injection with 0.2 mg of Malachite Green-KLH conjugate as prepared in EXAMPLE 1 mixed with complete Freund's adjuvant. Five booster immunizations were administered at 15-day intervals using the antigen. Blood was collected 7 to 10 days after the last booster immunization in order to check for antibody titers. Titers were checked using both indirect ELISA and competitive ELISA that employed Malachite Green Chromatic-BSA conjugate as the coating antigen and free Malachite Green Chromatic as competitor. […] A typical competitive ELISA procedure is described below: • (1). In the Malachite Green Chromatic-BSA coated 96-well plate, add 50 μL of negative control and each Malachite Green Chromatic standard (1, 5, 10, 25, 50, 100 ng/mL) in duplicate into different wells; add 50 μL of each sample in duplicate into different sample wells. • (2). Add 100 μL of diluted Malachite Green Antibody #1 and mix well by gently tapping the edge of the plate for 10 seconds. • (3). Incubate the plate for 30 min at 37° C. or 1 hr at room temperature (15-25° C.). • (4). Wash the plate 3 times with 250 μL 1×PBS. After the last wash, gently slap the plate dry on paper towels. • (5). Add 150 μL of HRP Goat-against Rabbit antibody conjugate solution. Incubate the plate for 30 min at 37° C. or 1 hr at room temperature (15-25° C.). • (6). Wash the plate 3 times with 250 μL 1×PBS. After the last wash, gently slap the plate dry on paper towels. • (7). Add 100 μL of TMB substrate. • (8). Time the reaction immediately after adding the substrate; mix the solution by gently tapping the edge of the plate. • (9). After incubating for 15 min at room temperature, add 100 μL of 1 M H2SO4 to stop the enzyme reaction before reading the plate at 450 nm.

Data set [2] relates to Leukomalachite Green antibody. The settings on record: Randox antibody raised against Leucomalachite Green immunogen; cited from earlier work.
The conditions of data set [3]: in fish; cited from earlier work.

As for `CN(C)c1ccc(C(O)(c2ccccc2)c2ccc(N(C)C)cc2)cc1` [Carbinol], in data set [1], the “level detectable by the antibodies” value was found to be 0.5 ng/mL.

Regarding `O=C(N[C@H](CO)[C@H](O)c1ccc([N+](=O)[O-])cc1)C(Cl)Cl` [Chloramphenicol], in data set [1], the Cross-reactivities is recorded as below 0.01% and the Sensitivity was >10,000 ng/ml.

`CC(C)(C)NCC(O)c1cc(Cl)c(N)c(Cl)c1` (centres unmarked) [Clenbuterol]: in data set [1], the Cross-reactivities is recorded as below 0.01% and the Sensitivity was >10,000 ng/ml.

As for `CN(C)c1ccc(C(=C2C=CC(=[N+](C)C)C=C2)c2ccc(N(C)C)cc2)cc1` [Crystal Violet], in data set [1], the Cross-reactivities is 42% and the Sensitivity is 10 ng/mL.

Consider `O=C1OCCN1/N=C/c1ccc([N+](=O)[O-])o1` [Furazolidone], for which the Sensitivity in data set [1] is on record as >10,000 ng/ml.

In data set [1], `CN(C)c1ccc(C(c2ccc(N(C)C)cc2)c2ccc(N(C)C)cc2)cc1` [Leucocrystal Violet] yielded a Cross-reactivities below 0.01% and a Sensitivity of 5000 ng/mL.

As to `CN(C)c1ccc(C(c2ccccc2)c2ccc(N(C)C)cc2)cc1` [Leucomalachite Green], in data set [1], the Cross-reactivities was found to be 1%, the Sensitivity is 500 ng/mL and the “level detectable by the antibodies” value was 0.5 ng/mL.

As to `CN(C)c1ccc(C(=C2C=CC(=[N+](C)C)C=C2)c2ccccc2)cc1` [Malachite Green], the cross reactivity in data set [2] was 26.8%. Moreover, in data set [1], the Cross-reactivities was 100% and the Sensitivity amounted to 1 ng/mL. The compound further returned a test sensitivity in data set [1] (produced antibodies, Table 1 summary) of 1 ppb. Also, the “converted into Leucomalachite Green” value in data set [3] is reported as around 80%.

As to `Cc1cc(C)nc(NS(=O)(=O)c2ccc(N)cc2)n1` [Sulfumethazine], in data set [1], the Cross-reactivities is reported as below 0.01% and the Sensitivity is listed as >10,000 ng/ml.
